This test concerns HCT116 MTAP-deleted cell lines. As to the kind of experiment: Cell viability assay (CellTiter-Glo, 7 days), HCT116 MTAP-deleted. It counts as cell-based. The following applies: Homo sapiens, HCT-116; cell viability, HCT116 MTAP-deleted; class symbols; read-out: CC50. In outline: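 PRMT5 inhibitors were serially diluted in DMSO and acoustically spotted as dose-response series into plates before cell seeding. Cells were grown with compound for 7 days at 37 °C, 5% CO2, 90% humidity, then viability was read by CellTiter-Glo luminescence and reported as CC50.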

What is called CC50 is the concentration giving 50% cytotoxicity.

As to `Cc1ncc2c(N)nc3ccc(C(=O)N4CCC5(CC4)COc4ccccc45)cc3n12` [Ff-61, (4-amino-1-methylimidazo[1,5-a]quinoxalin-8-yl)(2H-spiro[benzofuran-3,4′-piperidin]-1′-yl)methanone], the CC50 is over 1000 nM.
To `Nc1nc2ccc(C(=O)N(Cc3ccc(-n4ccnc4)cc3Cl)C34CC(C3)C4)cc2n2cncc12` [Ff-63, 4-amino-N-(bicyclo[1.1.1]pentan-1-yl)-N-(2-chloro-4-(1H-imidazol-1-yl)benzyl)imidazo[1,5-a]quinoxaline-8-carboxamide] belongs 100 to 1000 nM; to `Cc1ncc2c(N)nc3ccc(C(=O)N4CCC5(CC4)C(=O)N(C)c4ccccc45)cc3n12` [Ff-64, 1′-(4-amino-1-methylimidazo[1,5-a]quinoxaline-8-carbonyl)-1-methylspiro[indoline-3,4′-piperidin]-2-one], 100 to 1000 nM.
As for `Cc1ncc2c(N)nc3ccc(C(=O)N4CCC5(CC4)C(=O)Nc4ccccc45)cc3n12` [Ff-65, 1′-(4-amino-1-methylimidazo[1,5-a]quinoxaline-8-carbonyl)spiro[indoline-3,4′-piperidin]-2-one], the figure is over 1000 nM; as for `Nc1nc2cc(F)c(C(=O)N3CC[C@@H]4Oc5cc(C(F)(F)F)ccc5[C@@H]43)cc2n2cncc12` [Ff-66, (4-amino-7-fluoroimidazo[1,5-a]quinoxalin-8-yl)((3aS,8bS)-6-(trifluoromethyl)-2,3,3a,8b-tetrahydro-1H-benzofuro[3,2-b]pyrrol-1-yl)methanone], 100 to 1000 nM; as for `Cc1ncn2c1c(N)nc1cc(F)c(C(=O)N(C)C3CCc4nc(C(F)(F)F)ccc43)cc12` (centres unmarked) [Ff-68, 4-amino-7-fluoro-N,3-dimethyl-N-(2-(trifluoromethyl)-6,7-dihydro-5H-cyclopenta[b]pyridin-5-yl)imidazo[1,5-a]quinoxaline-8-carboxamide], under 100 nM.
As for `C[C@H](C(=O)N(C)C)N(Cc1ccc(C(F)(F)F)cc1F)C(=O)c1cc2c(cc1F)nc(N)c1cncn12` [Ff-69, 4-amino-N-[(1R)-2-(dimethylamino)-1-methyl-2-oxo-ethyl]-7-fluoro-N-[[2-fluoro-4-(trifluoromethyl)phenyl]methyl]imidazo[1,5-a]quinoxaline-8-carboxamide], the figure is 100 to 1000 nM; as for `CN1CC[C@@H](N(Cc2ccc(C(F)(F)F)cc2F)C(=O)c2cc3c(cc2F)nc(N)c2cncn23)C1=O` [Ff-70, 4-amino-7-fluoro-N-[[2-fluoro-4-(trifluoromethyl)phenyl]methyl]-N-[(3R)-1-methyl-2-oxo-pyrrolidin-3-yl]imidazo[1,5-a]quinoxaline-8-carboxamide], under 100 nM; as for `CCN(Cc1ccc(F)cc1Cl)C(=O)c1ccc2nc(N)c3cncn3c2c1` [Ff-71, 4-amino-N-(2-chloro-4-fluorobenzyl)-N-ethylimidazo[1,5-a]quinoxaline-8-carboxamide], 100 to 1000 nM.
For `CC(C)N(Cc1ccc(F)cc1Cl)C(=O)c1ccc2nc(N)c3cncn3c2c1` [Ff-72, 4-amino-N-(2-chloro-4-fluorobenzyl)-N-isopropylimidazo[1,5-a]quinoxaline-8-carboxamide], the CC50 is 100 to 1000 nM.
Consider `Nc1nc2cc(F)c(C(=O)N(Cc3ccc(F)cc3Cl)C3CCC3)cc2n2cncc12` [Ff-73, 4-amino-N-(2-chloro-4-fluorobenzyl)-N-cyclobutyl-7-fluoroimidazo[1,5-a]quinoxaline-8-carboxamide], for which the CC50 lay in the range of 100 to 1000 nM.
Turning to `Nc1nc2ccc(C(=O)N3CCOC[C@@H]3c3ccc(C(F)(F)F)cc3)cc2n2cncc12` [Ff-84, (S)-(4-aminoimidazo[1,5-a]quinoxalin-8-yl)(3-(4-(trifluoromethyl)phenyl)morpholino)methanone], the CC50 was 100 to 1000 nM.
As for `Nc1nc2cnc(C(=O)N3CCOC[C@@H]3c3ccc(C(F)(F)F)cc3)cc2n2cncc12` [Ff-86, (S)-(4-aminoimidazo[1,5-a]pyrido[3,4-e]pyrazin-8-yl)(3-(4-(trifluoromethyl)phenyl)morpholino)methanone], the figure is under 100 nM.
As for `Nc1nc2cnc(C(=O)N3CCCC[C@@H]3c3ccc(C(F)(F)F)cc3)cc2n2cncc12` [Ff-87, (R)-(4-aminoimidazo[1,5-a]pyrido[3,4-e]pyrazin-8-yl)(2-(4-(trifluoromethyl)phenyl)piperidin-1-yl)methanone], the figure is under 100 nM; as for `C[C@H]1CN(C(=O)c2ccc3nc(N)c4cncn4c3c2)[C@H]2c3ccc(C(F)(F)F)cc3C[C@H]2O1` [Ff-89, (4-aminoimidazo[1,5-a]quinoxalin-8-yl)((2S,4aS,9aR)-2-methyl-7-(trifluoromethyl)-2,3,9,9a-tetrahydroindeno[2,1-b][1,4]oxazin-4(4aH)-yl)methanone], under 100 nM.
Consider `Cc1ncc2c(N)nc3cc(F)c(C(=O)N4CCOC[C@@H]4c4ccc(C(F)(F)F)cc4)cc3n12` [Ff-92, (S)-(4-amino-7-fluoro-1-methylimidazo[1,5-a]quinoxalin-8-yl)(3-(4-(trifluoromethyl)phenyl)morpholino)methanone], for which the CC50 was under 100 nM.
On to `C[C@H]1CN(C(=O)c2cc3c(cc2F)nc(N)c2cncn23)[C@H]2c3ccc(Br)cc3C[C@H]2O1` [Ff-93, (4-amino-7-fluoroimidazo[1,5-a]quinoxalin-8-yl)((2S,4aS,9aR)-7-bromo-2-methyl-2,3,9,9a-tetrahydroindeno[2,1-b][1,4]oxazin-4(4aH)-yl)methanone], for which the CC50 was under 100 nM.
To `CN(C(=O)c1cc2c(cc1F)nc(N)c1cncn12)[C@@H]1COc2cc(Br)ccc21` [Ff-94, (S)-4-amino-N-(6-bromo-2,3-dihydrobenzofuran-3-yl)-7-fluoro-N-methylimidazo[1,5-a]quinoxaline-8-carboxamide] belongs under 100 nM.
To `CN(C(=O)c1cc2c(cc1F)nc(N)c1cncn12)[C@@H]1COc2cc(-c3cnn(C(F)(F)F)c3)ccc21` [Ff-95, (S)-4-amino-7-fluoro-N-methyl-N-(6-(1-(trifluoromethyl)-1H-pyrazol-4-yl)-2,3-dihydrobenzofuran-3-yl)imidazo[1,5-a]quinoxaline-8-carboxamide] belongs under 100 nM.
As for `C[C@H]1CN(C(=O)c2cc3c(cc2F)nc(N)c2cncn23)[C@H]2c3ccc(-c4cnn(C(F)F)c4)cc3C[C@H]2O1` [Ff-96, (4-amino-7-fluoroimidazo[1,5-a]quinoxalin-8-yl)((2S,4aS,9aR)-7-(1-(difluoromethyl)-1H-pyrazol-4-yl)-2-methyl-2,3,9,9a-tetrahydroindeno[2,1-b][1,4]oxazin-4(4aH)-yl)methanone], the figure is under 100 nM; as for `C[C@H]1CN(C(=O)c2cc3c(cc2F)nc(N)c2cncn23)[C@H]2c3ccc(-c4cnn(C(F)(F)F)c4)cc3C[C@H]2O1` [Ff-97, (4-amino-7-fluoroimidazo[1,5-a]quinoxalin-8-yl)((2S,4aS,9aR)-2-methyl-7-(1-(trifluoromethyl)-1H-pyrazol-4-yl)-2,3,9,9a-tetrahydroindeno[2,1-b][1,4]oxazin-4(4aH)-yl)methanone], 100 to 1000 nM; as for `C[C@@H]1CN(C(=O)c2cc3c(cn2)nc(N)c2cncn23)[C@H]2c3ccc(C(F)(F)F)cc3C[C@H]2O1` [Ff-98, (4-aminoimidazo[1,5-a]pyrido[3,4-e]pyrazin-8-yl)((2R,4aS,9aR)-2-methyl-7-(trifluoromethyl)-2,3,9,9a-tetrahydroindeno[2,1-b][1,4]oxazin-4(4aH)-yl)methanone], under 100 nM.
Take `Nc1nc2ccc(C(=O)N3CCOC[C@@H]3c3ccc(C(F)(F)F)cc3)cc2n2cnc(F)c12` [Ff-103, (S)-(4-amino-3-fluoroimidazo[1,5-a]quinoxalin-8-yl)(3-(4-(trifluoromethyl)phenyl)morpholino)methanone]: the CC50 was in the range of 100 to 1000 nM.
`Nc1nc2cc(F)c(C(=O)N3CCC[C@@H]4Oc5cc(C(F)(F)F)c(F)cc5[C@@H]43)cc2n2cncc12` [Ff-105, (4-amino-7-fluoroimidazo[1,5-a]quinoxalin-8-yl)((4aS,9bS)-8-fluoro-7-(trifluoromethyl)-3,4,4a,9b-tetrahydrobenzofuro[3,2-b]pyridin-1(2H)-yl)methanone]: the half-maximal cytotoxic concentration (CC50) is under 100 nM.
To `Cc1ncc2c(N)nc3cnc(C(=O)N4CCC[C@@H]5Oc6c(ccc(C(F)(F)F)c6F)[C@@H]54)cc3n12` [Ff-107, (4-amino-1-methylimidazo[1,5-a]pyrido[3,4-e]pyrazin-8-yl)((4aS,9bS)-6-fluoro-7-(trifluoromethyl)-3,4,4a,9b-tetrahydrobenzofuro[3,2-b]pyridin-1(2H)-yl)methanone] belongs under 100 nM; to `Cc1ncc2c(N)nc3cnc(C(=O)N4CCC[C@@H]5Oc6cc(C(F)(F)F)c(F)cc6[C@@H]54)cc3n12` [Ff-108, (4-amino-1-methylimidazo[1,5-a]pyrido[3,4-e]pyrazin-8-yl)((4aS,9bS)-8-fluoro-7-(trifluoromethyl)-3,4,4a,9b-tetrahydrobenzofuro[3,2-b]pyridin-1(2H)-yl)methanone], under 100 nM; to `CC1Oc2cc(C(F)(F)F)ccc2C1N(C)C(=O)c1cc2c(cc1F)nc(N)c1cncn12` (centres unmarked) [Ff-114, 4-amino-7-fluoro-N-methyl-N-(2-methyl-6-(trifluoromethyl)-2,3-dihydrobenzofuran-3-yl)imidazo[1,5-a]quinoxaline-8-carboxamide], under 100 nM.
For `Cc1ncn2c1c(N)nc1cnc(C(=O)N3CCC[C@@H]4Oc5cc(C(F)(F)F)c(F)cc5[C@@H]43)cc12` [Ff-116, (4-amino-3-methylimidazo[1,5-a]pyrido[3,4-e]pyrazin-8-yl)((4aS,9bS)-8-fluoro-7-(trifluoromethyl)-3,4,4a,9b-tetrahydrobenzofuro[3,2-b]pyridin-1(2H)-yl)methanone], the CC50 was under 100 nM.
Consider `Nc1nc2ccc(C(=O)N3CCC[C@@H]4Oc5c(ccc(C(F)(F)F)c5F)[C@@H]43)cc2n2cncc12` [Ff-118, (4-aminoimidazo[1,5-a]quinoxalin-8-yl)((4aS,9bS)-6-fluoro-7-(trifluoromethyl)-3,4,4a,9b-tetrahydrobenzofuro[3,2-b]pyridin-1(2H)-yl)methanone], for which the CC50 is under 100 nM.
